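Following 48 hours of exposure in 96-well plates, responses at five concentrations were used to interpolate endpoints linearly. GI50 is the concentration that inhibits growth by half.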 Activity calls are given as the source filed them. No stated cut-off is given here; in the data, active = GI50 up to about 1.1 µM and inactive = higher.
Experiments:
Assay in all cases: NCI-60 cell line screen, 48 h
[1] = system: DMS-273
[2] = system: COLO 205
[3] = system: NCI-H23
[4] = system: HOP-18
[5] = system: CAKI-1
[6] = system: NCI-H522
[7] = system: NCI-H460
[8] = system: XF498
[9] = system: LXFL 529
[10] = system: KM12
[11] = system: M19-MEL
[12] = system: SNB-78
[13] = system: A498
[14] = system: HT-29
[15] = system: UO-31
[16] = system: ACHN
[17] = system: MCF7
[18] = system: DMS-114
[19] = system: NCI/ADR-RES
[20] = system: BT-549

Row | SMILES | GI50 [1] | GI50 [2] | GI50 [3] | GI50 [4] | GI50 [5] | GI50 [6] | GI50 [7] | GI50 [8] | GI50 [9] | GI50 [10] | GI50 [11] | GI50 [12] | GI50 [13] | GI50 [14] | GI50 [15] | GI50 [16] | GI50 [17] | GI50 [18] | GI50 [19] | GI50 [20]
1 | O=C(CC1Sc2ccccc2NC1=O)Nc1ccccc1[N+](=O)[O-] (stereo not given) | > 100 µM (inactive) | > 100 µM (inactive) | > 100 µM (inactive) | > 100 µM (inactive) | > 100 µM (inactive) | 17.1 µM (inactive) | > 100 µM (inactive) | > 100 µM (inactive) | > 100 µM (inactive) | > 100 µM (inactive) | > 100 µM (inactive) | > 100 µM (inactive) | > 100 µM (inactive) | > 100 µM (inactive) | > 100 µM (inactive) | > 100 µM (inactive) |  |  |  | 
2 | Cc1n(CC(=O)c2ccc([N+](=O)[O-])cc2)c2c([n+]1CC(C)C)C(=O)c1ccccc1C2=O | < 0.01 µM (active) | < 0.01 µM (active) | < 0.01 µM (active) | < 0.0184 µM (active) | 0.121 µM (active) | < 0.01 µM (active) | < 0.04 µM (active) |  |  | < 0.0211 µM (active) |  | < 0.0137 µM (active) | 0.668 µM (active) | < 0.0131 µM (active) | 16.1 µM (inactive) |  | < 0.01 µM (active) |  |  | 
3 | O=C1C(Cl)N(c2ccc([N+](=O)[O-])cc2)C1c1c[nH]c2ccccc12 (stereo not given) |  | > 100 µM (inactive) | 86.9 µM (inactive) |  |  | 56.8 µM (inactive) | 41.7 µM (inactive) | > 100 µM (inactive) | 36.2 µM (inactive) | 66.2 µM (inactive) | > 100 µM (inactive) |  |  | 48.1 µM (inactive) | 38.3 µM (inactive) |  |  | 38 µM (inactive) |  | 
4 | c1ccc([P+](Cc2csnn2)(c2ccccc2)c2ccccc2)cc1 | > 100 µM (inactive) | > 100 µM (inactive) | > 100 µM (inactive) | > 100 µM (inactive) | > 100 µM (inactive) | > 100 µM (inactive) | > 100 µM (inactive) | > 100 µM (inactive) | > 100 µM (inactive) | > 100 µM (inactive) | > 100 µM (inactive) | > 100 µM (inactive) | > 100 µM (inactive) | > 100 µM (inactive) | > 100 µM (inactive) | > 100 µM (inactive) |  | 64 µM (inactive) |  | 
5 | CCCCSCCC(N)P(=O)(O)O (stereo not given) |  | > 100 µM (inactive) | > 100 µM (inactive) |  | > 100 µM (inactive) | > 100 µM (inactive) | > 100 µM (inactive) |  |  |  |  |  |  | > 100 µM (inactive) | > 100 µM (inactive) | > 100 µM (inactive) | > 100 µM (inactive) |  | > 100 µM (inactive) | 
6 | COc1cccc(CC2Cc3ccccc3CC(=O)N2)c1 (stereo not given) |  | 74.1 µM (inactive) | 42.6 µM (inactive) |  | 16.6 µM (inactive) |  | 20.9 µM (inactive) |  |  | 22 µM (inactive) |  |  |  | 92.7 µM (inactive) | 20.8 µM (inactive) | 76.2 µM (inactive) | 30.4 µM (inactive) |  | 20 µM (inactive) | 28 µM (inactive)
7 | c1ccc2c(NCCCCCCCCNc3cccc4ccccc34)cccc2c1 | 29.6 µM (inactive) | 18.6 µM (inactive) | 25.3 µM (inactive) | 20.1 µM (inactive) | 19.7 µM (inactive) | 16.4 µM (inactive) | 21.7 µM (inactive) | 78.9 µM (inactive) | 18.6 µM (inactive) | > 100 µM (inactive) | > 10 µM (inactive) | 46.8 µM (inactive) | 44.1 µM (inactive) | 32.4 µM (inactive) | 26.2 µM (inactive) | 30 µM (inactive) |  | 25.6 µM (inactive) |  | 
8 | O=S(=O)(c1ccc(I)cc1)N(c1ccccc1)S(=O)(=O)C(F)(F)C(F)(F)C(F)(F)C(F)(F)F |  | 40 µM (inactive) | 43.2 µM (inactive) |  | 34.1 µM (inactive) | 28.2 µM (inactive) | 31.9 µM (inactive) |  |  | 18.8 µM (inactive) |  |  |  | 22.4 µM (inactive) | 55.8 µM (inactive) | 58.2 µM (inactive) | 26.9 µM (inactive) |  | 43.3 µM (inactive) | > 100 µM (inactive)
9 | COc1cccc(NC(=O)CC(=O)NN2C(=O)/C(=C/c3ccc(N(CCC#N)CCC#N)cc3)N=C2c2cc([N+](=O)[O-])ccc2Cl)c1 | > 100 µM (inactive) | > 100 µM (inactive) | > 100 µM (inactive) |  | > 100 µM (inactive) | 43.9 µM (inactive) |  | 57.7 µM (inactive) | 40.7 µM (inactive) | > 100 µM (inactive) | > 100 µM (inactive) | > 100 µM (inactive) |  |  | > 100 µM (inactive) | > 100 µM (inactive) |  | 31 µM (inactive) |  | 
